Experimental data from ChEMBL document CHEMBL1146067, “Free radical scavenging and antioxidant activities of substituted hexahydropyridoindoles. Quantitative structure-activity relationships” (J Med Chem, 2006).

Test system: Radical scavenging activity
Assay: Antioxidant activity in unilamellar DOPC liposomes
Type: functional, subcellular, Liposome

Row | Structure (SMILES) | Log IC50
1 | COc1ccc2c(c1)[C@H]1CN(C)CC[C@H]1N2 | -4.48
2 | Cc1cc2c(c([N+](=O)[O-])c1)N[C@H]1CCN(C)C[C@@H]21 (racemic) | -4.58
3 | CCCCOC(=O)N1CC[C@@H]2Nc3cc(C)c(OC)c(C)c3[C@@H]2C1 (racemic) | -5.35
4 | Cc1cc(C)c2c(c1)[C@@H]1CN(C(=O)OCc3ccccc3)CC[C@@H]1N2 (racemic) | -5.36
5 | Cc1cc(N)c2c(c1)[C@@H]1CN(C)CC[C@@H]1N2 (racemic) | -4.9
6 | CN1CC[C@@H]2Nc3ccc(O)cc3[C@@H]2C1 (racemic) | -4.68
7 | Cc1cc(Br)c2c(c1)[C@@H]1CN(C)CC[C@@H]1N2 (racemic) | -4.8
8 | Cc1cc2c(c(N(C)C)c1)N[C@H]1CCN(C)C[C@@H]21 (racemic) | -4.66
9 | Cc1ccc2c(c1)[C@H]1CN(C)CC[C@H]1N2 [STOBADINE] | -4.6

More lines, now with the values ahead:

Row | Log IC50 | Structure (SMILES)
10 | -5.48 | COc1c(C)cc2c(c1C)[C@@H]1CN(C(=O)OCc3ccccc3)CC[C@@H]1N2 (racemic)
11 | -5.53 | Cc1c(Br)cc2c(c1C)N[C@H]1CCN(C(=O)OCc3ccccc3)C[C@@H]21 (racemic)
12 | -5.19 | COc1c(C)cc2c(c1C)[C@@H]1CN(C(=O)OCC(C)C)CC[C@@H]1N2 (racemic)
13 | -4.7 | CCOC(=O)N1CC[C@@H]2Nc3cc(C)c(OC)c(C)c3[C@@H]2C1 (racemic)
14 | -4.71 | COC(=O)N1CC[C@@H]2Nc3c(Br)c(C)c(OC)c(C)c3[C@@H]2C1 (racemic)
15 | -5.49 | COc1ccc2c(c1)[C@@H]1CN(C(=O)OCc3ccccc3)CC[C@@H]1N2 (racemic)
16 | -5.29 | COc1cc(C)c2c(c1)[C@@H]1CN(C(=O)OCc3ccccc3)CC[C@@H]1N2 (racemic)
17 | -4.71 | COC(=O)N1CC[C@@H]2Nc3cc(C)c(OC)c(C)c3[C@@H]2C1 (racemic)
18 | -5.16 | CCCOC(=O)N1CC[C@@H]2Nc3cc(C)c(OC)c(C)c3[C@@H]2C1 (racemic)
19 | -5.12 | COc1ccc2c(c1)[C@@H]1CN(C(=O)OC(C)(C)C)CC[C@@H]1N2 (racemic)
